According to patent US10328033B2, “Methods and biocompatible compositions to achieve sustained drug release in the eye” (Integral Biosystems LLC, priority 2014, dated 2019):

Assay: Photo-oxidation stress by high intensity UV light
Format: physicochemical
Conditions: UV 254 nm, 24 hours, in buffer alone
Description: Nanomesh wafers (ML-ES-06-31) were tested for photo-oxidative degradation by high intensity UV light (254 nm, for 24 hours). […] In contrast, 50% of the travoprost in buffer alone was degraded under these conditions.

travoprost degraded: 50%
Structure (SMILES): CC(C)OC(=O)CCC/C=C\C[C@@H]1[C@@H](/C=C/[C@@H](O)COc2cccc(C(F)(F)F)c2)[C@H](O)C[C@@H]1O [travoprost]
